Test results published in patent US11492325B2, “Compounds as inhibitors of sodium channels” (Human BioMolecular Research Institute, priority 2016, dated 2022).
pIC50: −log10 of the molar value. Read-outs that look alike come from different tables or passages of the source.

What was measured:
[1] = system: cardiomyocytes derived from hiPSCs from a LQTS3 patient; settings: for LQT-Fold (prolongation): cell in fold shortening column marked (prolongation); for LQT-EC50 (μM) Shortening: AP shortening
[2] = system: cardiomyocytes derived from hiPSCs from a LQTS3 patient; assay: cells; settings: Homo sapiens, Cardiomyocyte; for IC50: read-out: LQT-IC50 (uM)-Shortening; for pIC50: read-out: LQT-IC50 (prolongation)
[3] = system: normal human induced pluripotent stem cell (hiPSC) cardiomyocyte; settings: for WT-Fold Prolongation: APD; for WT-Cessation Dose (μM): cessation of beating
[4] = LQT-3 cardiomyocytes, cessation of beating
[5] = read-out: LQT-EC50 (μM) Shortening, LQT-3 cardiomyocytes, AP shortening
[6] = WT cardiomyocytes, AP prolongation
[7] = read-out: LQT-EC50 (μM) Shortening, pyridyl derivatives

| SMILES | LQT-Cessation Dose ([1]; LQT3 cardiomyocytes) | LQT-Fold Shortening ([1]; LQT3 cardiomyocytes) | IC50 [2] | WT-Fold Prolongation ([3]; normal hiPSC cardiomyocytes) | Cessation of Beating ([3]; normal hiPSC cardiomyocytes) | WT-Prolongation Dose ([3]; normal hiPSC cardiomyocytes) | also measured |
| --- | --- | --- | --- | --- | --- | --- | --- |
| COCCNC(COc1cc(C)cc(C)c1)C1CC1.Cl (centres unmarked) [Compound 68] | 200 µM | 1.11 | 0.022 µM | 1.686 | 200 µM |  | WT-EAD Dose ([3]; normal hiPSC cardiomyocytes): 66 µM |
| CCc1ccccc1OCC(N)c1ccccc1 (centres unmarked) [Compound 24] | 22 µM | 1.979 | 0.38 µM | None | 66 µM | None |  |
| COc1ccccc1OCC(N)c1ccccc1 (centres unmarked) [Compound 26, 2-(2-methoxyphenoxy)-1-phenylethanamine] | 133 µM | 1.482 | 0.13 µM | 2.502 | 22 µM |  | WT-EAD Dose ([3]; normal hiPSC cardiomyocytes): 7.4 µM |
| CCCc1ccccc1OCC(N)c1ccccc1 (centres unmarked) [Compound 23, 1-phenyl-2-(2-propylphenoxy)ethanamine] | 22 µM | 1.32 | 0.78 µM | None | 22 µM | None |  |
| CC(N)COC1CCCCC1.Cl (centres unmarked) [Compound 87] | None | 1.611 | 34.8 µM | None | None | None |  |
| Cc1cccc(C)c1OC[C@@H](N)C1CC1.Cl [Compound 60] |  | 1.22 | 0.11 µM | 2.805 |  |  | LQT-Cessation Dose ([1]; human, 5 min): 200 µM; Cessation of Beating ([3]; human, 5 min): 200 µM; WT-EAD Dose ([3]; human, 5 min): 66 µM |
| Cc1cc(C)cc(OC[C@H](N)C2CC2)c1.Cl [Compound 63] | 200 µM | 1.11 | 7.5 µM | 1.577 | None |  | WT-EAD Dose ([3]; normal hiPSC cardiomyocytes): 66 µM |
| Cc1cccc(C)c1OCC(N)c1ccc2ccccc2c1 (centres unmarked) [Compound 131] |  |  |  |  |  |  | LQT-Fold Shortening ([1]; LQT-3 cardiomyocytes): 1.309; LQT-Cessation Dose [1, 4]: 133 µM; EC50 [2, 5]: 4.73 µM; WT-EC50 (μM) Prolongation [3, 6]: Does Not Prolong AP |
| Cc1cccc(OCC(O)c2ccccc2)c1C (centres unmarked) [Compound 32, 2-(2,3-dimethylphenoxy)-1-phenylethanol] | 66 µM | 1.355 | 7.53 µM | None | 133 µM | None |  |
| NC(COc1ccc2ccccc2c1)c1ccccc1 (centres unmarked) [Compound 130] |  |  |  |  |  |  | LQT-Fold Shortening ([1]; LQT-3 cardiomyocytes): 1.459; LQT-Cessation Dose [1, 4]: 133 µM; EC50 [2, 5]: 8.7 µM; WT-EC50 (μM) Prolongation [3, 6]: Does Not Prolong AP |
| C[C@@H](N)COc1ccccc1.Cl [Compound 71, (R)-1-phenoxypropan-2-amine hydrochloride] | None |  |  | 1.997 | None |  | LQT-Fold (prolongation) [1]: 1.214 (prolongation); pIC50 [2]: 3.71; WT-EAD Dose ([3]; normal hiPSC cardiomyocytes): 200 µM |
| Cc1ncccc1OCC(N)c1ccccc1 (centres unmarked) [Compound 111] |  |  |  |  |  |  | LQT-Fold Shortening ([1]; LQT-3 cardiomyocytes): 1.426; LQT-Shortening Dose (μM) ([1]; LQT-3 cardiomyocytes): Does Not Shorten; EC50 [2, 5]: 8.57 µM; EC50 [2, 7]: ~8 µM; WT-EC50 (μM) Prolongation [3, 6]: Does Not Prolong AP |
| COCCNC(COc1c(C)ccnc1C)c1ccccc1 (centres unmarked) [Compound 122] |  |  |  |  |  |  | LQT-Fold Shortening ([1]; LQT-3 cardiomyocytes): 1.188; EC50 [2, 5]: 46.6 µM; WT-EC50 (μM) Prolongation [3, 6]: Does Not Prolong AP |
| NC(COc1ccncc1)c1ccccc1 (centres unmarked) [Compound 126] |  |  |  |  |  |  | LQT-Fold Shortening ([1]; LQT-3 cardiomyocytes): 1.281; EC50 [2, 5]: 3.82 µM; EC50 [2, 7]: ~4 µM; WT-EC50 (μM) Prolongation [3, 6]: Does Not Prolong AP; WT-Cessation Dose (μM) ([3]; WT cardiomyocytes): No cessation of beating |
| Cc1ccc(OCC(N)c2ccccc2)cn1 (centres unmarked) [Compound 114] |  |  |  |  |  |  | LQT-Fold Shortening ([1]; LQT-3 cardiomyocytes): 1.233; EC50 [2, 5]: 67.5 µM; WT-EC50 (μM) Prolongation [3, 6]: Does Not Prolong AP; WT-Cessation Dose (μM) ([3]; WT cardiomyocytes): No cessation of beating |
| COCCNC(C)COc1c(C)cccc1C (centres unmarked) [Compound 40, 1-(2,6-dimethylphenoxy)-N-methoxy-ethyl-2-amine] | None | 1.267 | 2.31 µM | 4.366 | None | 32 µM | LQT-Shortening Dose ([1]; LQT3 cardiomyocytes): 7.4 µM; WT-EAD Dose ([3]; normal hiPSC cardiomyocytes): 66 µM |
| C[C@H](N)COc1ccccc1.Cl [Compound 72] | None |  |  | 2.93 | None |  | LQT-Fold (prolongation) [1]: 1.133 (prolongation); pIC50 [2]: 3.89; WT-EAD Dose ([3]; normal hiPSC cardiomyocytes): 133 µM |
| CCc1ccccc1OCC(C)N (centres unmarked) [Compound 50, 1-(2-Ethylphenoxy)propan-2-amine] | None | 1.12 | 6.01 µM | 1.392 | None |  |  |

| SMILES | LQT-Cessation Dose ([1]; LQT3 cardiomyocytes) | LQT-Fold Shortening ([1]; LQT3 cardiomyocytes) | IC50 [2] | WT-Fold Prolongation ([3]; normal hiPSC cardiomyocytes) | Cessation of Beating ([3]; normal hiPSC cardiomyocytes) | WT-Prolongation Dose ([3]; normal hiPSC cardiomyocytes) | also measured |
| --- | --- | --- | --- | --- | --- | --- | --- |
| Cc1cc(C)cc(OC[C@@H](N)C2CC2)c1.Cl [Compound 62] | 200 µM | 1.19 | 1.03 µM | 1.585 | 200 µM |  | WT-EAD Dose ([3]; normal hiPSC cardiomyocytes): 66 µM |
| CC(=O)NC(COc1c(C)cccc1C)c1ccccc1 (centres unmarked) [Compound 28, N-(2-(2,6-dimethylphenoxy)-1-phenylethyl)acetamide] | 66 µM | 1.620 | > 0.8 µM | None | 66 µM | None |  |
| NC(COc1cccc2ccccc12)c1ccccc1 (centres unmarked) [Compound 129] |  |  |  |  |  |  | LQT-Fold Shortening ([1]; LQT-3 cardiomyocytes): 1.316; LQT-Cessation Dose [1, 4]: 66 µM; EC50 [2, 5]: 0.82 µM; WT-EC50 (μM) Prolongation [3, 6]: Does Not Prolong AP |
| Cc1cccc(C)c1OCC(N)C1CCCCC1.Cl (centres unmarked) [Compound 73] | 66 µM | 1.136 | 0.082 µM | None | 66 µM | None |  |
| NC(COc1ncccc1C(F)(F)F)c1ccccc1 (centres unmarked) [Compound 96, 1-phenyl-2-((3-(trifluoromethyl)pyridin-2-yl)oxy)ethan-1-amine] | None | 1.3 |  | 1.163 | None |  | LQT-Fold Shortening ([1]; pyridyl derivatives): 1.358; LQT-Shortening Dose ([1]; pyridyl derivatives): 133 µM; EC50 [2, 7]: 20.7 µM; WT-Cessation Dose ([3]; pyridyl derivatives): No cessation of beating; WT-EC50 (μM) Prolongation ([3]; pyridyl derivatives): Does Not Prolong AP |
| CC(N)COc1cccc(C(F)(F)F)c1.Cl (centres unmarked) [Compound 85] | 200 µM | 1.661 | 31.3 µM | None | 200 µM | None |  |
| CCNC(C)COc1c(C)cccc1C (centres unmarked) [Compound 41, 1-(2,6-dimethylphenoxy)-N-ethylpropan-2-amine] | None | None |  | 5.338 | None |  | LQT-Shortening Dose ([1]; LQT3 cardiomyocytes): None; WT-EAD Dose ([3]; normal hiPSC cardiomyocytes): 133 µM |
| COCCNC(COc1cnccc1C(F)(F)F)c1ccccc1 (centres unmarked) [Compound 124] |  |  |  |  |  |  | LQT-Fold Shortening ([1]; LQT-3 cardiomyocytes): 1.601; LQT-EC50 (μM) Shortening ([1]; LQT-3 cardiomyocytes): Shortens; WT-EC50 (μM) Prolongation [3, 6]: Does Not Prolong AP |
| Cc1cc(C)cc(OCC(N)c2ccc3ccccc3c2)c1 (centres unmarked) [Compound 135] |  |  |  |  |  |  | LQT-Fold Shortening ([1]; LQT-3 cardiomyocytes): 1.667; LQT-Shortening Dose ([1]; LQT-3 cardiomyocytes): 133 µM; LQT-EC50 (μM) Shortening ([1]; LQT-3 cardiomyocytes): Shortens; LQT-Cessation Dose [1, 4]: 200 µM; WT-EC50 (μM) Prolongation [3, 6]: Does Not Prolong AP |
| Cc1cc(C)cc(OCC(NCCN2CCOCC2)c2ccccc2)c1 (centres unmarked) [Compound 98] | 66 µM | 1.3 |  | 1.54 |  |  |  |
| Cc1cccc(C)c1OC[C@H](N)C1CC1.Cl [Compound 61] |  | None |  | 3.829 |  |  | LQT-Shortening Dose ([1]; LQT3 cardiomyocytes): None; LQT-Cessation Dose ([1]; human, 5 min): 200 µM; Cessation of Beating [3]: None; WT-EAD Dose ([3]; human, 5 min): 66 µM |
| Cc1cccc(C)c1OCC(C)O (centres unmarked) [Compound 37] | None | None |  | None | None | None | LQT-Shortening Dose ([1]; LQT3 cardiomyocytes): None |
| NC(COc1ccc(C(F)(F)F)nc1)c1ccccc1 (centres unmarked) [Compound 117] |  |  |  |  |  |  | LQT-Fold Shortening ([1]; LQT-3 cardiomyocytes): Does Not Shorten; LQT-Shortening Dose (μM) ([1]; LQT-3 cardiomyocytes): Does Not Shorten; LQT-EC50 (μM) Shortening ([1]; LQT-3 cardiomyocytes): Does Not Shorten; WT-EC50 (μM) Prolongation [3, 6]: Does Not Prolong AP |
| COc1ccccc1OCC(C)N (centres unmarked) [Compound 52, 1-(2-Methoxyphenoxy)propan-2-amine] | None | None |  | 2.499 | None |  | LQT-Shortening Dose ([1]; LQT3 cardiomyocytes): None; WT-EAD Dose ([3]; normal hiPSC cardiomyocytes): 133 µM |
| c1ccc(CON=C(COc2ccccn2)c2ccccc2)cc1 [Compound 18] | None | None |  | None | None | None | LQT-Shortening Dose ([1]; LQT3 cardiomyocytes): None |
| CC(COC1CCCCC1)=NOCc1ccccc1 [Compound 45] | None | 1.37 |  | None | None | None |  |
| NC(COc1cc(C(F)(F)F)ccn1)c1ccccc1 (centres unmarked) [Compound 97, 1-phenyl-2-((4-(trifluoromethyl)pyridin-2-yl)oxy)ethan-1-amine] | None | 1.1 |  | None | None | None | WT-EAD Dose ([3]; normal hiPSC cardiomyocytes): 133 µM |
